Reference: patent US12398121B2 (Nuvation Bio Inc., priority 2018, dated 2025)

Each molecule was assayed against Human recombinant PARP1 (Homo sapiens, UniProt P09874) (assay: RBC HotSpot PARP1 radioisotope-based filter binding assay). Conditions: not given.
Human recombinant PARP1, sequence (P09874 whole entry): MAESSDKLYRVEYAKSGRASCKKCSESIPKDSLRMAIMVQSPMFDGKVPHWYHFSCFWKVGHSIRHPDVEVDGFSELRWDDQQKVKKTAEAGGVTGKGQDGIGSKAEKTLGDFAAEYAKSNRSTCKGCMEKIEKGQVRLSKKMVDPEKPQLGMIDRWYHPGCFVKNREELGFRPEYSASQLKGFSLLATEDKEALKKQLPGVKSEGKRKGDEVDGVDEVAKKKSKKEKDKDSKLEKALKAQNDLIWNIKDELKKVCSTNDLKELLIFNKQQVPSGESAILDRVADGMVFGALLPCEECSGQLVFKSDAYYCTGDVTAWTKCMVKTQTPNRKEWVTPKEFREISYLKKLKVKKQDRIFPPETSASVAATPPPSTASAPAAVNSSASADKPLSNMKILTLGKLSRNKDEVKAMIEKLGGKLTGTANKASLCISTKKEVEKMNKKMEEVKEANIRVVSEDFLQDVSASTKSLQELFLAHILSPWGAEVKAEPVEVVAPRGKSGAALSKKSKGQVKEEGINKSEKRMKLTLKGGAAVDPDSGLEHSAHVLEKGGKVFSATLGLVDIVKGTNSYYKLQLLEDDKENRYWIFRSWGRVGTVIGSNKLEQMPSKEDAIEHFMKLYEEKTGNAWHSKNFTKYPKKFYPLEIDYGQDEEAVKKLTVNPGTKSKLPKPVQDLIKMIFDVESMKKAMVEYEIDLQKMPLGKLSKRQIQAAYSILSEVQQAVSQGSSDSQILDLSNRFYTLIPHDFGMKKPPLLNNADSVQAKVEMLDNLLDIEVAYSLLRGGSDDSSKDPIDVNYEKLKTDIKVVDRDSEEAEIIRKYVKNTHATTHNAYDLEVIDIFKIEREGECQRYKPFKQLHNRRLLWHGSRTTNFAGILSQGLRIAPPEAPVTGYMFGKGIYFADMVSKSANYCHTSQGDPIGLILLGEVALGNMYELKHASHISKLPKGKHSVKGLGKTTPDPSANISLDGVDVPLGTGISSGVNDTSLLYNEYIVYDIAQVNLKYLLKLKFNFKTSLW
Format: biochemical
Method: The following methods are for evaluating the in vitro biology properties of the test articles. • a. RBC HotSpot Poly(ADP-ribose) Polymerases 1 (PARP1) and Poly(ADP-ribose) Polymerases 2 (PARP2) Assays: The assay principle is radioisotope-based filter binding assay where incorporation of radioisotope-labeled NAD^+ into the substrate captured on filter is detected after washout free NAD^+. Data were analyzed using Excel and GraphPad Prism software for IC50 curve fits. Each assay was conducted with PJ34 as a positive control. • i. PARP1 assay: Human recombinant PARP1 at a final concentration of 2.5 nM was combined with histone H4 (20 μM) and test articles at various concentrations in reaction buffer (50 mM Tris-HCL, pH 8.0, 50 mM NaCl, 10 mM MgCl2, 1 mM DTT, 1% DMSO, and 20 μg/mL activated DNA). The solution was inoculated for 20 min at room temperature and the reaction initiated by adding [adenylate-^32P]-Nicotinamide Adenine Dinucleotide, ^32P-NAD^+ at a final concentration of 10 μM. After incubation for 2 hour at room temperature, the reaction mixture was filtered and washed with 0.75% phosphoric acid for radioactivity detection. • ii. PARP2 assay: Human recombinant PARP2 at a final concentration of 2.5 nM was combined with histone H3 (20 μM) and test articles at various concentrations in reaction buffer (50 mM Tris-HCL, pH 8.0, 50 mM NaCl, 10 mM MgCl2, 1 mM DTT, 1% DMSO, and 20 μg/mL activated DNA). The solution was inoculated for 20 min at room temperature and the reaction was initiated by adding [adenylate-^32P]-Nicotinamide Adenine Dinucleotide, ^32P-NAD^+ at a final concentration of 10 μM. After incubation for 2 hour at room temperature, the reaction mixture was filtered and washed with 0.75% phosphoric acid for radioactivity detection. • b. AR binding assay: AR in LNCaP cytosol was used for determining the binding affinity of test articles and the reference compound—progesterone (Sigma, Cat: E2785, St. Louis, MO). IC50s were determined using 8 concentrations/compound. Cytosol was plated at 200 μg/well (100 μL) into a 96-well conical polypropylene plate (Agilent, Cat: 5042-1385, Santa Clara, CA) and mixed with 3 μL of test compound. After adding 100 μL of ^3H-methyltrienolone (PerkinElmer, Cat: NET590250UC, San Jose, CA), the plate was sealed and shaken at 300 rpm at 4° C. for 24 hours. Post incubation, 100 μL of radioligand adsorption buffer containing 10 mM Tris-HCl, pH 7.4; 1.5 mM EDTA; 1 mM DTT; 0.25% charcoal; 0.0025% dextran was added to individual well. Plate was shaken for 15 min at 4′C followed by centrifugation at 3000 rpm for 30 min at 4° C. 150 μL of supernatant was transferred into scint-tube (PerkinElmer, Cat: 6000192) and mixed with 2 mL of Ultima Gold Cocktail (PerkinElmer, Cat: 6013329). Radioactivity was counted using a TriCarb 2910 TR scintillation counter (PerkinElmer). Inhibition of the radioactivity by test articles were calculated using the equation below: % Inhibition=(1−(Assay well−Average_LC)/(Average_HC−Average_LC))×100%.
`C[C@](O)(CS(=O)(=O)c1ccc(NCC(=O)N2CCN(C(=O)c3cc(Cc4n[nH]c(=O)c5ccccc45)ccc3F)CC2)cc1)C(=O)Nc1ccc(C#N)c(C(F)(F)F)c1` [Compound 1.98, (R)-N-(4-cyano-3-(trifluoromethyl)phenyl)-3-(4-(2-(4-(2-fluoro-5-((4-oxo-3,4-dihydrophthalazin-1-yl)methyl)benzoyl)piperazin-1-yl)-2-oxoethylamino)phenylsulfonyl)-2-hydroxy-2-methylpropanamide] was tested, and the IC50 was 0.2 nM. Molecule `C[C@](O)(CS(=O)(=O)c1ccc(NCCN2CCN(C(=O)c3cc(Cc4n[nH]c(=O)c5ccccc45)ccc3F)CC2)cc1)C(=O)Nc1ccc(C#N)c(C(F)(F)F)c1` [Compound 1.99, (R)-N-(4-cyano-3-(trifluoromethyl)phenyl)-3-(4-(2-(4-(2-fluoro-5-((4-oxo-3,4-dihydrophthalazin-1-yl)methyl)benzoyl)piperazin-1-yl)ethylamino)phenylsulfonyl)-2-hydroxy-2-methylpropanamide] has an IC50 of 0.8 nM.

Same assay, conditions: 2.5 nM enzyme, histone H4, 10 μM 32P-NAD+; read-out: PARP1 IC50
In the case of `C[C@]12CCC(=O)C[C@@H]1CC[C@@H]1[C@@H]2CC[C@@]2(C)[C@H]1CC[C@@]2(O)c1cn(CC(=O)N2CCN(C(=O)c3cc(Cc4n[nH]c(=O)c5ccccc45)ccc3F)CC2)nn1` [Compound 1.107, 4-(4-fluoro-3-(4-(2-(4-((5S,8R,9S,10S,13S,14S,17S)-17-hydroxy-10,13-dimethyl-3-oxohexadecahydro-1H-cyclopenta[a]phenanthren-17-yl)-1H-1,2,3-triazol-1-yl)acetyl)piperazine-1-carbonyl)benzyl)phthalazin-1(2H)-one], the IC50 is reported as 0.3 nM. Work on `CN(CCCCCC(=O)N1CCN(C(=O)c2cc(Cc3n[nH]c(=O)c4ccccc34)ccc2F)CC1)CCOc1ccc(C(=O)c2c(-c3ccc(O)cc3)sc3cc(O)ccc23)cc1` [Compound 2.4, 4-(4-fluoro-3-(4-(6-((2-(4-(6-hydroxy-2-(4-hydroxyphenyl)benzo[b]thiophene-3-carbonyl)phenoxy)ethyl)(methyl)amino)hexanoyl)piperazine-1-carbonyl)benzyl)phthalazin-1(2H)-one] yielded an IC50 of 4 nM. `C[C@]12CCC(=O)C[C@@H]1CC[C@@H]1[C@@H]2CC[C@@]2(C)[C@H]1CC[C@@]2(O)C#CC(=O)N1CCN(C(=O)c2cc(Cc3n[nH]c(=O)c4ccccc34)ccc2F)CC1` [Compound 1.116, 4-(4-fluoro-3-(4-(3-((5S,8R,9S,10S,13S,14S,17S)-17-hydroxy-10,13-dimethyl-3-oxohexadecahydro-1H-cyclopenta[a]phenanthren-17-yl)propioloyl)piperazine-1-carbonyl)benzyl)phthalazin-1(2H)-one] was tested, and the IC50 was 0.5 nM. Molecule `C[C@]12CCC(O)C[C@@H]1CC[C@@H]1[C@@H]2CC[C@]2(C)[C@@H](OCCCCCC(=O)N3CCN(C(=O)c4cc(Cc5n[nH]c(=O)c6ccccc56)ccc4F)CC3)CC[C@@H]12` (stereo partly drawn) [Compound 1.111, 4-(4-fluoro-3-(4-(6-((5S,8R,9S,10S,13S,14S,17S)-3-hydroxy-10,13-dimethylhexadecahydro-1H-cyclopenta[a]phenanthren-17-yloxy)hexanoyl)piperazine-1-carbonyl)benzyl)phthalazin-1(2H)-one] has an IC50 of 1.6 nM. Work on `C[C@]12CCC(=O)C[C@@H]1CC[C@@H]1[C@@H]2CC[C@@]2(C)[C@H]1CC[C@@]2(O)CCCN1CCN(C(=O)c2cc(Cc3n[nH]c(=O)c4ccccc34)ccc2F)CC1` [Compound 1.119, 4-(4-fluoro-3-(4-(3-((5S,8R,9S,10S,13S,14S,17R)-17-hydroxy-10,13-dimethyl-3-oxohexadecahydro-1H-cyclopenta[a]phenanthren-17-yl)propyl)piperazine-1-carbonyl)benzyl)phthalazin-1(2H)-one] yielded an IC50 of 1.6 nM. For `C[C@]12CCC(=O)C[C@@H]1CC[C@@H]1[C@@H]2CC[C@@]2(C)[C@H]1CC[C@@]2(O)CCC(=O)N1CCN(C(=O)c2cc(Cc3n[nH]c(=O)c4ccccc34)ccc2F)CC1` (stereo in doubt) [Compound 1.117, 4-(4-fluoro-3-(4-(3-((5S,8R,9S,10S,13S,14S,17R)-17-hydroxy-10,13-dimethyl-3-oxohexadecahydro-1H-cyclopenta[a]phenanthren-17-yl)propanoyl)piperazine-1-carbonyl)benzyl)phthalazin-1(2H)-one], the IC50 was 0.3 nM. Work on `C[C@]12CCC(=O)C[C@@H]1CC[C@@H]1[C@@H]2CC[C@@]2(C)[C@H]1CC[C@@]2(O)C#CCN1CCN(C(=O)c2cc(Cc3n[nH]c(=O)c4ccccc34)ccc2F)CC1` [Compound 1.118, 4-(4-fluoro-3-(4-(3-((5S,8R,9S,10S,13S,14S,17S)-17-hydroxy-10,13-dimethyl-3-oxohexadecahydro-1H-cyclopenta[a]phenanthren-17-yl)prop-2-ynyl)piperazine-1-carbonyl)benzyl)phthalazin-1(2H)-one] yielded an IC50 of 13.6 nM. Work on `C[C@]12CCC(F)(F)C[C@@H]1CC[C@@H]1[C@@H]2CC[C@]2(C)[C@@H](OCCCCCC(=O)N3CCN(C(=O)c4cc(Cc5n[nH]c(=O)c6ccccc56)ccc4F)CC3)CC[C@@H]12` [Compound 1.114, 4-(3-(4-(6-((5S,8R,9S,10S,13S,14S,17S)-3,3-difluoro-10,13-dimethylhexadecahydro-1H-cyclopenta[a]phenanthren-17-yloxy)hexanoyl)piperazine-1-carbonyl)-4-fluorobenzyl)phthalazin-1(2H)-one] yielded an IC50 of 27.9 nM.
